Consider 14 compounds from US12421191B2, “3-hydroxyoxindole derivatives as CRHR2 antagonist” (RaQualia Pharma Inc., priority 2020, dated 2025).

The assay deals with T1, human CRHR2-alpha (Homo sapiens, UniProt Q13324).
T1 construct: host or cells: CHO-K1
T1 sequence (Q13324 1-411): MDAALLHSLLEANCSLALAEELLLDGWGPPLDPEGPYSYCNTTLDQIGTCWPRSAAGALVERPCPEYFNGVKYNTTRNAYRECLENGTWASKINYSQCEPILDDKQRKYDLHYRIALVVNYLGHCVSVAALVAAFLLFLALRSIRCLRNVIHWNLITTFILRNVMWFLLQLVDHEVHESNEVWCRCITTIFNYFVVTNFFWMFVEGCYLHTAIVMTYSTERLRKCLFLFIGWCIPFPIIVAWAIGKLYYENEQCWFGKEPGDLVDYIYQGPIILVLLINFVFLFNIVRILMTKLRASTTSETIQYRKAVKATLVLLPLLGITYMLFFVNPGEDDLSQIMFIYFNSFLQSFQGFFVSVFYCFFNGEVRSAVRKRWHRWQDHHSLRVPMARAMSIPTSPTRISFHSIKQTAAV
Description: cAMP functional assay for human CRHR2 (LANCE Ultra TR-FRET). In kind it is cell-based. As to conditions: inhibition of cAMP production in CHO-K1 cells stably expressing human CRHR2-alpha, EC90 of human urocortin2 as agonist; read-out: IC50 against CRHR2. The method in brief:
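CHO-K1 cells stably expressing CRHR2-alpha, serum-starved 7 h and cryopreserved, preincubated with compound 30 min at 25° C in HBSS with 0.1% BSA, 0.5 mM IBMX, 5 mM Hepes pH 7.4. EC90 human urocortin2 added for 30 min at 25° C; cAMP read by TR-FRET; IC50 from percent-inhibition curves.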
Take `COc1cccc2c1C(O)(c1cccc(F)c1F)C(=O)N2C[C@H]1CC[C@H](NC(=O)c2cc(Cl)cnc2C(F)F)CC1` (some centres unmarked) [Example 158, 5-chloro-2-(difluoromethyl)-N-((1r,4r)-4-((3-(2,3-difluorophenyl)-3-hydroxy-4-methoxy-2-oxoindolin-1-yl)methyl)cyclohexyl) nicotinamide]: the IC50 is less than 200 nM.

Consider `Cc1ncc(Cl)cc1C(=O)N[C@H]1CC[C@H](CN2C(=O)C(O)(c3cccc(F)c3F)c3cc(F)ccc32)CC1` (some centres unmarked) [Example 162, 5-chloro-N-((1r,4r)-4-((3-(2,3-difluorophenyl)-5-fluoro-3-hydroxy-2-oxoindolin-1-yl)methyl)cyclohexyl)-2-methylnicotinamide], for which the IC50 is less than 200 nM. The figure for `O=C(N[C@H]1CC[C@H](CN2C(=O)C(O)(c3cccc(F)c3F)c3ccccc32)CC1)c1cc(Cl)cnc1Cl` (some centres unmarked) [Example 167, 2,5-dichloro-N-((1r,4r)-4-((3-(2,3-difluorophenyl)-3-hydroxy-2-oxoindolin-1-yl)methyl)cyclohexyl) nicotinamide] is less than 200 nM; for `COc1ccc(F)c(C2(O)C(=O)N(C[C@H]3CC[C@H](NC(=O)c4cc(Cl)cnc4C(F)F)CC3)c3ccc(F)cc32)c1` (some centres unmarked) [Example 168, 5-chloro-2-(difluoromethyl)-N-((1r,4r)-4-((5-fluoro-3-(2-fluoro-5-methoxyphenyl)-3-hydroxy-2-oxoindolin-1-yl)methyl)cyclohexyl) nicotinamide] it is less than 200 nM. For `O=C(N[C@H]1CC[C@H](CN2C(=O)C(O)(c3ccccc3F)c3ccc(Cl)cc32)CC1)c1cc(Cl)cnc1C(F)F` (some centres unmarked) [Example 170, 5-chloro-N-((1r,4r)-4-((6-chloro-3-(2-fluorophenyl)-3-hydroxy-2-oxoindolin-1-yl)methyl)cyclohexyl)-2-(difluoromethyl)nicotinamide] the value was less than 200 nM. The figure for `Cc1ncc(Cl)cc1C(=O)N[C@H]1CC[C@H](CN2C(=O)C(O)(c3cccc(F)c3F)c3ccccc32)CC1` (some centres unmarked) [Example 173, 5-chloro-N-((1r,4r)-4-((3-(2,3-difluorophenyl)-3-hydroxy-2-oxoindolin-1-yl)methyl)cyclohexyl)-2-methylnicotinamide] is less than 200 nM. As to `O=C(N[C@H]1CC[C@H](CN2C(=O)C(O)(c3ccccc3F)c3c(F)cc(F)cc32)CC1)c1cc(Cl)cnc1C(F)F` (some centres unmarked) [Example 177, 5-chloro-N-((1r,4r)-4-((4,6-difluoro-3-(2-fluorophenyl)-3-hydroxy-2-oxoindolin-1-yl)methyl)cyclohexyl)-2-(difluoromethyl)nicotinamide], the IC50 is less than 200 nM. For `Cc1cccc2c1C(O)(c1ccc(F)cn1)C(=O)N2C[C@H]1CC[C@H](NC(=O)c2cc(Cl)cnc2C(F)F)CC1` (some centres unmarked) [Example 178] the value was less than 200 nM; for `Cc1cccc2c1C(O)(c1ccccc1F)C(=O)N2C[C@H]1CC[C@H](NC(=O)c2cc(Cl)cnc2C(F)F)CC1` (some centres unmarked) [Example 179, 5-chloro-2-(difluoromethyl)-N-((1r,4r)-4-((3-(2-fluorophenyl)-3-hydroxy-4-methyl-2-oxoindolin-1-yl)methyl)cyclohexyl) nicotinamide], less than 200 nM; for `COc1ccc(F)c(C2(O)C(=O)N(C[C@H]3CC[C@H](NC(=O)c4cc(Cl)cnc4C(F)(F)F)CC3)c3ccccc32)c1` (some centres unmarked) [Example 185, 5-chloro-N-((1r,4r)-4-((3-(2-fluoro-5-methoxyphenyl)-3-hydroxy-2-oxoindolin-1-yl)methyl)cyclohexyl)-2-(trifluoromethyl)nicotinamide], less than 200 nM. As to `COc1ccc(F)c(C2(O)C(=O)N(C[C@H]3CC[C@H](NC(=O)c4cc(Cl)cnc4C(F)F)CC3)c3cccc(F)c32)c1` (some centres unmarked) [Example 189, 5-chloro-2-(difluoromethyl)-N-((1r,4r)-4-((4-fluoro-3-(2-fluoro-5-methoxyphenyl)-3-hydroxy-2-oxoindolin-1-yl)methyl)cyclohexyl) nicotinamide], the IC50 was less than 200 nM. The figure for `O=C(N[C@H]1CC[C@H](CN2C(=O)C(O)(c3cccc(Cl)c3F)c3c(F)cccc32)CC1)c1cc(Cl)cnc1C(F)F` (some centres unmarked) [Example 190, 5-chloro-N-((1r,4r)-4-((3-(3-chloro-2-fluorophenyl)-4-fluoro-3-hydroxy-2-oxoindolin-1-yl)methyl)cyclohexyl)-2-(difluoromethyl)nicotinamide] is less than 200 nM. For `O=C(N[C@H]1CC[C@H](CN2C(=O)C(O)(c3ccccc3F)c3c(F)cccc32)CC1)c1cc(Cl)cnc1C(F)F` (some centres unmarked) [Example 191, 5-chloro-2-(difluoromethyl)-N-((1r,4r)-4-((4-fluoro-3-(2-fluorophenyl)-3-hydroxy-2-oxoindolin-1-yl)methyl)cyclohexyl) nicotinamide] the value was less than 200 nM.

In the case of `O=C(N[C@H]1CC[C@H](CN2C(=O)C(O)(c3cccc(F)c3F)c3c(F)cccc32)CC1)c1cc(Cl)cnc1C(F)F` (some centres unmarked) [Example 192, 5-chloro-2-(difluoromethyl)-N-((1r,4r)-4-((3-(2,3-difluorophenyl)-4-fluoro-3-hydroxy-2-oxoindolin-1-yl)methyl)cyclohexyl) nicotinamide], the IC50 was less than 200 nM.
